Experimental data: patent EP0339504A2, “Human immunodeficiency virus (HIV) env-coded peptide capable of eliciting HIV-inhibiting antibodies in mammals” (priority 1988, dated 1989)

Legend:
[1] = test system: antibodies from human HIV-1 seropositive serum samples; test: ELISA detection of binding of human antibodies to immobilized synthetic peptides; settings: wells blocked with diluent 1 hour before use
Description: Synthetic peptides were immobilized directly on Immulon®-II microtiter plates using glutaraldehyde. The plates were activated with 2% glutaraldehyde for 2 hrs at room temperature or 0.1% glutaraldehyde for 30 min and rinsed with deionized water. Two conditions of glutaraldehyde treatment were used routinely; the 2% glutaraldehyde was used to ensure adequate binding of the peptide to the plate and the 0.1% glutaraldehyde to avoid alteration of the binding sites. Peptide solutions of 100 µl containing 10 µg/ml in 60 mM bicarbonate buffer, pH 9.6, were added per well and incubated overnight at 4°C. The plates were washed and blocked with PBST (phosphate buffered saline + 0.05% Tween® 10) for 1 hr at 37°C and stored dry at 4°C.
This procedure was used to assure immobilization of the peptide to the microtiter plate. The peptide-HSA conjugate was immobilized on the microtiter plate well using the procedure above, except that glutaraldehyde was not included in the reaction.
Immediately before use, where indicated, the plates were blocked again with 100 µl of diluent (PBST + 5% bovine serum albumin + 20% heat inactivated normal goat serum + 0.1% sodium azide + 0.05% thimerosal) for 30 to 60 min at 37°C. […] The optical density or absorbance of the reaction was determined using a microtiter plate reader. […]

[2] = test system: CEM cells chronically infected with HIV-1 IIIB; test: Cell fusion assay with anti-peptide sera (giant cell count); format: cell-based; settings: 1:10 serum dilution, control sera 50,65
Description: Briefly, 5000 CEM cells chronically infected with HIV-1 IIIB or HIV-1 RF were mixed with 75,000 Molt 4 cells in a volume of 100 µl in a 96 well half-area plate. Final dilution of sera in the assay was 1 to 20. Twenty-four hours later giant cells were visually enumerated at a 40x magnification.

guinea pigs = test: Immunization of guinea pigs with peptide-carrier protein conjugate; anti-peptide antibodies by ELISA; format: in vivo, guinea pig
Description: Peptides were conjugated to either ovalbumin or keyhole limpet hemocyanin prior to immunization. For ELISA studies, human serum albumin (HSA) was used as the carrier protein. Carrier protein (2 mg/ml) was activated with 0.5% glutaraldehyde for 30 to 60 min at room temperature, then an equal volume of the peptide solution (2 mg/ml in dimethylsulfoxide) was added. The reaction took place overnight at 4°C, following which the reaction mixture was dialyzed overnight against deionized water or 0.1 M glycine, pH 7.0 in the case of human serum albumin.
Guinea pigs and rabbits were immunized following standard immunization protocols. Guinea pigs and rabbits were immunized initially with 100 to 200 µg of the peptide-carrier protein conjugate in complete Freund's adjuvant, and boosted using half the amount of peptide-carrier protein conjugate in incomplete Freund's adjuvant every two weeks thereafter. Serum samples were obtained at every other boost.
All of the peptides listed in Table 1 were conjugated to a carrier protein (either keyhole limpet hemocyanin or ovalbumin) and each peptide-carrier protein conjugate was used to immunize two guinea pigs. Guinea pigs were selected as a convenient test animal system. The resultant guinea pig antiserum samples were monitored for anti-peptide reactivity using ELISA procedures. […] A time point of six months was selected for testing the antiviral (i.e, HIV neutralizing and cell fusion-blocking) characteristics of the guinea pig antisera.
Although different levels of antibodies were produced, there was no case where only one animal from the pair produced antibodies.

HIV-1 IIIB = test: HIV neutralization assay with anti-peptide sera (p24 antigen in Molt 4 culture supernatant); format: cell-based; settings: Molt 4 cells, day six
Description: Approximately 500 TCID₅₀ infectious units of HIV-1 IIIB or HIV-1 RF in 25 µl were mixed and incubated with serum dilutions (25 µl) for 30 min at 37°C. Molt 4 cells (4x10⁴) were added in a volume of 100 µl and incubation continued for six days at 37°C. The final dilution of the serum sample was 1 to 20. The total volume of each culture was doubled daily by addition of fresh medium (RPMI + 20% fetal calf serum). On day six, 100 µl samples were taken from the supernatant and tested for the level of viral gag-coded p24 antigen using an antigen capture assay (Du Pont, Wilmington, DE).

Substance: peptide 1-80: aa number 418 to 432 of HIV-1 IIIB env-coded protein (CRIKQIINMWQKVGK; Surface protein gp120; UniProt P04578 418-432, looked up, fragment)
- HIV SEROPOSITIVE SERA Number of Peptide ELISA Positive Sera of 37 Tested ([1]; positive = ELISA absorbance greater than 0.2): 14
- HIV SEROPOSITIVE SERA Positive Sera Average Absorbance ± SD ([1]; positive = absorbance greater than 0.2): 0.34 ± 0.24
- FUSION ASSAY (number of giant cells formed) ([2]; guinea pig antiserum, 6 month bleed, two counts per cell separated by a comma (no decimal)): 63,66
- FUSION ASSAY (number of giant cells formed) ([2]; rows marked + : guinea pig antiserum, 2-5 month bleed, two counts separated by a comma): 54,53
- LIMITING DILUTION (guinea pigs; anti-peptide ELISA of guinea pig antiserum, 6 month bleed, dilution at which an absorbance of 0.1 would be obtained, one row per animal): 30
- level of anti-peptide antibodies elicited (in words) (guinea pigs; by 6 months following the first immunization): elicited very low levels of anti-peptide antibodies
- LIMITING DILUTION (guinea pigs; rows marked + : guinea pig antiserum, 2-5 month bleed, dilution giving absorbance 0.1): < 20
- NEUTRALIZATION ACTIVITY (quantity of p24 present in the supernatant) (HIV-1 IIIB; guinea pig antiserum, 6 month bleed): 800 ng/mL
- NEUTRALIZATION ACTIVITY (quantity of p24 present in the supernatant) (HIV-1 IIIB; rows marked + : guinea pig antiserum, 2-5 month bleed): >800 ng/mL
